The values below come from patent US6372757B1, “Phenylurea and phenylthio urea derivatives” (SmithKline Beecham p.l.c., priority 1998, dated 2002).

Usually Kb stands for the equilibrium dissociation constant of an antagonist, usually derived from a functional assay.

One test has as its target T1, human orexin-1 receptor (Homo sapiens, UniProt O43613).
T1 construct: expressed in transfected cells; host or cells: HEK293
T1 sequence (O43613 1-425): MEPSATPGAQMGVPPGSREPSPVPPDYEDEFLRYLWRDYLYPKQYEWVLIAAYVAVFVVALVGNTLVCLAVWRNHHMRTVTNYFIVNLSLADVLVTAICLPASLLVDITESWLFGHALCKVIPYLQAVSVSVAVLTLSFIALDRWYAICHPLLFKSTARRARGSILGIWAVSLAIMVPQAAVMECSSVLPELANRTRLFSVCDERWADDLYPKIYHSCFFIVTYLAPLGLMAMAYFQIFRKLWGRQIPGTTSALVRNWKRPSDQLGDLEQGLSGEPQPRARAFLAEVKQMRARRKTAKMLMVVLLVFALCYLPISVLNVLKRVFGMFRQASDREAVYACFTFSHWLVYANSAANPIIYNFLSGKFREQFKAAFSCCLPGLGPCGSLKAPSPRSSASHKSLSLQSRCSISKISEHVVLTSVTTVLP
Kind of test: Orexin-1 receptor antagonist activity, FLIPR intracellular calcium assay in HEK293 cells against 3.0 nM human orexin-A. The class given is cell-based. Particulars: HEK293 cells expressing human orexin-1 receptor; antagonism of 3.0 nM human orexin-A; Kb=IC50/(1+([3/EC50]). As to the method:
The seeded plates were incubated overnight at 37° C. in 5% CO2.

A short description of test [1]: Rat sleep/EEG studies, central administration at onset of normal sleep period. Format: in vivo. Particulars: at the expense of paradoxical sleep and slow wave sleep 2. The text has this: Therefore, antagonists of orexin receptors may be useful in the treatment of sleep disorders including insomnia.
The conditions of test [2]: central administration, freely-feeding rats, 4 hour time period; cited from earlier work.

Counter-ions that a name gives are not always drawn. No end group written: not given here.

For `CSc1ccc(NC(=O)Nc2ccnc3cccnc23)cc1` [Example 2, 1-(4-Methylthiophenyl)-3-[1,5]naphthyridin-4-yl urea hydrochloride], on human orexin-1 receptor, the antagonist dissociation constant (Kb) was below 100 nM.

On to “orexin-A: ligand for the orexin-1 receptor; 33-residue peptide, sequence given in the 1st table (QPLPDCCRQKTCSCRLYELLHGAGNHAAGILTL-NH2; not fully specified (residue 1, bridges); ends and bridges not checked; UniProt O43612 34-66, looked up)”, for which, in test [1], the effect on arousal result is reported as “does-related increase in arousal”. Besides, the “increase in food intake over control rats receiving vehicle” value in test [2] is “approximately four-fold”.
